Source: US20230348564A1, “ANTI-CANCER PROTEINS” (UNICHEM LABORATORIES LTD, priority 2020, published 2023)

Experiments:
[1] = system: VEGF release in PANC-1 cells; experiment: VEGF secretion in cancer cells (Human VEGF ELISA); format: cell-based; details: 24 h
Method: (§1) The cell lines were maintained in DMEM+10% […] (heat inactivated) at 37° C. with 5% CO2, and 95% humidity. Cells were counted and plated in 6-well plates for 24 h at a density of 0.5×10^6 cells/well. The cells were incubated overnight under growth conditions as described above so as to allow cell recovery and exponential growth. Cells were treated with each test item at different concentrations for 24h in serum free media. Doxorubicin was used as positive control. Secreted levels of VEGF were determined in supernatants after 24 hours using Human VEGF ELISA kit (R&D systems) as per manufacturer's protocol. Change in VEGF levels corresponding to each treatment was calculated using the following formula: […]

[2] = system: VEGF release in MDA-MB-231 cells; experiment: VEGF secretion in cancer cells (Human VEGF ELISA); format: cell-based; details: 24 h
Method: as §1

[3] = system: PANC-1 (Human pancreatic epitheloid carcinoma); experiment: MTT cytotoxicity assay; details: SEQ ID NO. 2 80 μg/ml, doxorubicin 75 μM; 48h
Method: (§2) All the cancer cell lines were procured from National Centre for Cell Science, Pune (India). Cell lines were maintained under conditions as mentioned in Table 23. The cell lines were sub-cultured by trypsinization followed by splitting the cell suspension into fresh flasks and supplementing with fresh culture medium.
(§3) All the cell lines were grown in specified media at 37° C. with 95% Humidity and 5% CO2.
(§4) The cells were trypsinized, counted by Trypan blue method in Neuebauer's Chamber and plated in wells of flat bottom 96-well plate at the density corresponding to 10×10^3 cells/well/200 μL medium.
(§5) Following overnight incubation, the media in the plate was replenished with 180 μL/well and then the cells were treated with 20 μL of each test item at concentrations ranging from 2.5 μg/mL-80 μg/mL in triplicates, so that the total volume in each well is 200 μL.
(§6) The untreated cells served as negative control. The cells were incubated with the test items or positive control for a time period of 48h. Following incubation, the cell cytotoxicity was estimated using MTT assay. Absorbance was measured at 540 nm. The percentage cytotoxicity corresponding to each treatment was calculated using the formula:
(§7) % Cytotoxicity=(1−X/R)*100
(§8) Where X=absorbance of wells corresponding to treated cells R=absorbance of untreated cells (cells maintained in growth medium only)
(§9) IC50 value was calculated using Graph-Pad Prism version 4.01 software.

[4] = system: T24 (Human Bladder Cancer); experiment: MTT cytotoxicity assay; details: SEQ ID NO. 2 80 μg/ml, doxorubicin 75 μM; 48h
Method: as §2, §3, §4, §5, §6, §7, §8, §9

[5] = system: MDA-MB-453 (Human breast metastatic carcinoma); experiment: MTT cytotoxicity assay; details: SEQ ID NO. 2 80 μg/ml, doxorubicin 75 μM; 48h
Method: as §2, §3, §4, §5, §6, §7, §8, §9

[6] = system: MIA PaCa-2 (Human pancreatic carcinoma); experiment: MTT cytotoxicity assay; details: SEQ ID NO. 2 80 μg/ml, doxorubicin 75 μM; 48h
Method: as §2, §3, §4, §5, §6, §7, §8, §9

[7] = system: MCF-7 (Human breast adenocarcinoma); experiment: MTT cytotoxicity assay; details: SEQ ID NO. 2 80 μg/ml, doxorubicin 75 μM; 48h
Method: as §2, §3, §4, §5, §6, §7, §8, §9

[8] = system: T-47D (Human mammary gland ductal carcinoma); experiment: MTT cytotoxicity assay; details: SEQ ID NO. 2 80 μg/ml, doxorubicin 75 μM; 48h
Method: as §2, §3, §4, §5, §6, §7, §8, §9

[9] = system: PBMCs (Peripheral blood mononuclear cells); experiment: MTT cytotoxicity assay; details: SEQ ID NO. 2 80 μg/ml, doxorubicin 75 μM; 48h
Method: as §2, §3, §4, §5, §6, §7, §8, §9

[10] = system: MDA-MB-231 (Human breast adenocarcinoma); experiment: MTT cytotoxicity assay; details: SEQ ID NO. 2 80 μg/ml, doxorubicin 75 μM; 48h
Method: as §2, §3, §4, §5, §6, §7, §8, §9

## COc1cccc2c1C(=O)c1c(O)c3c(c(O)c1C2=O)C[C@@](O)(C(=O)CO)C[C@@H]3O[C@H]1C[C@H](N)[C@H](O)[C@H](C)O1 [Doxorubicin, reference compound]
[1]; 10 μM
  Average absorbance at 450 nM: 0.506
  Percentage decrease in VEGF levels: 73.6%
  VEGF level: 269.7 pg/mL
[1]; 100 μM
  Average absorbance at 450 nM: 0.483
  Percentage decrease in VEGF levels: 75.1%
  VEGF level: 254.6 pg/mL
[2]; 10 μM
  Average absorbance at 450 nM: 0.176
  Percentage decrease in VEGF levels: 89.2%
  VEGF level: 49.9 pg/mL
[2]; 100 μM
  Average absorbance at 450 nM: 0.145
  Percentage decrease in VEGF levels: 93.7%
  VEGF level: 29.0 pg/mL
[3]
  Cytotoxicity at highest concentration tested: 65.1%
[4]
  Cytotoxicity at highest concentration tested: 54.4%
[5]
  Cytotoxicity at highest concentration tested: 71.4%
[6]
  Cytotoxicity at highest concentration tested: 63.9%
[7]
  Cytotoxicity at highest concentration tested: 64.9%
[8]
  Cytotoxicity at highest concentration tested: 51.1%
[9]
  Cytotoxicity at highest concentration tested: 32.0%
[10]
  Cytotoxicity at highest concentration tested: 50.2%
